Assay results from the supplement of paper PMC11451515.

Test system: NOMO1
Test: cell viability relative to DMSO control; higher = less cytotoxic
Conditions: 48 h
Outline: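 Viability is expressed as a percentage of DMSO wells within each plate, and cell-free wells serve as background. Seeding densities in the 1536-well plates (5 μl) were 500 cells/well for NOMO1 or SEM leukemia cells and 1000 cells/well for P12-Ichikawa. Each line was adapted for at least four passages in each medium. Library compounds in DMSO were pin-dosed at 47 μM to 0.79 nM (11 points, threefold), and CellTiter-Glo One luminescence was read after 48 h at 37°C.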

[1] = HPLM + 10% dialyzed FBS, 0.000781 µM
[2] = HPLM + 10% dialyzed FBS, 0.00234 µM
[3] = HPLM + 10% dialyzed FBS, 0.00702 µM
[4] = HPLM + 10% dialyzed FBS, 0.0211 µM
[5] = HPLM + 10% dialyzed FBS, 0.0632 µM
[6] = HPLM + 10% dialyzed FBS, 0.19 µM
[7] = HPLM + 10% dialyzed FBS, 0.569 µM
[8] = HPLM + 10% dialyzed FBS, 1.71 µM
[9] = HPLM + 10% dialyzed FBS, 5.12 µM
[10] = HPLM + 10% dialyzed FBS, 15.4 µM
[11] = HPLM + 10% dialyzed FBS, 46.1 µM
[12] = RPMI 5 mM glucose + 10% FBS, 0.000781 µM
[13] = RPMI 5 mM glucose + 10% FBS, 0.00234 µM
[14] = RPMI 5 mM glucose + 10% FBS, 0.00702 µM
[15] = RPMI 5 mM glucose + 10% FBS, 0.0211 µM
[16] = RPMI 5 mM glucose + 10% FBS, 0.0632 µM
[17] = RPMI 5 mM glucose + 10% FBS, 0.19 µM
[18] = RPMI 5 mM glucose + 10% FBS, 0.569 µM
[19] = RPMI 5 mM glucose + 10% FBS, 1.71 µM
[20] = RPMI 5 mM glucose + 10% FBS, 5.12 µM
[21] = RPMI 5 mM glucose + 10% FBS, 15.4 µM
[22] = RPMI 5 mM glucose + 10% FBS, 46.1 µM
[23] = RPMI 5 mM glucose + 10% dialyzed FBS, 0.000781 µM
[24] = RPMI 5 mM glucose + 10% dialyzed FBS, 0.00234 µM
[25] = RPMI 5 mM glucose + 10% dialyzed FBS, 0.00702 µM
[26] = RPMI 5 mM glucose + 10% dialyzed FBS, 0.0211 µM
[27] = RPMI 5 mM glucose + 10% dialyzed FBS, 0.0632 µM
[28] = RPMI 5 mM glucose + 10% dialyzed FBS, 0.19 µM
[29] = RPMI 5 mM glucose + 10% dialyzed FBS, 0.569 µM
[30] = RPMI 5 mM glucose + 10% dialyzed FBS, 1.71 µM
[31] = RPMI 5 mM glucose + 10% dialyzed FBS, 5.12 µM
[32] = RPMI 5 mM glucose + 10% dialyzed FBS, 15.4 µM
[33] = RPMI 5 mM glucose + 10% dialyzed FBS, 46.1 µM

SMILES	cell viability [1] [%]	cell viability [2] [%]	cell viability [3] [%]	cell viability [4] [%]	cell viability [5] [%]	cell viability [6] [%]	cell viability [7] [%]	cell viability [8] [%]	cell viability [9] [%]	cell viability [10] [%]	cell viability [11] [%]	cell viability [12] [%]	cell viability [13] [%]	cell viability [14] [%]	cell viability [15] [%]	cell viability [16] [%]	cell viability [17] [%]	cell viability [18] [%]	cell viability [19] [%]	cell viability [20] [%]	cell viability [21] [%]	cell viability [22] [%]	cell viability [23] [%]	cell viability [24] [%]	cell viability [25] [%]	cell viability [26] [%]	cell viability [27] [%]	cell viability [28] [%]	cell viability [29] [%]	cell viability [30] [%]	cell viability [31] [%]	cell viability [32] [%]	cell viability [33] [%]
CC(C)[C@@H](C[S+](=O)([O-])C(C)C)N1C(=O)[C@@](C)(CC(=O)O)C[C@H](c2cccc(Cl)c2)[C@H]1c1ccc(Cl)cc1	122	115	129	143	140	97.9	36.4	35.6	31.2	33.6	29.3	128	106	113	109	121	128	111	64.8	24.5	19.5	22.2	117	98.5	108	112	145	132	98.5	65.9	47.1	25.2	19.1
CCOc1ccc(Nc2nc(-c3c(C)nc4ccccn34)cs2)cc1	109	118	119	111	40	35.7	33.4	38.7	38.8	45.7	40.4												119	117	128	120	112	33.2	31.4	30.2	31.4	35.9	32.1
CCN(CC)C(=S)SSC(=S)N(CC)CC	97.9	112	135	130	131	121	147	132	5.58	46.8	2.75	104	112	119	120	129	110	127	127	4.7	12.4	3.34	114	120	131	122	123	128	131	120	6.51	5.46	2.56
C[N+]1(C)[C@@H]2C[C@@H](OC(=O)[C@H](CO)c3ccccc3)C[C@H]1[C@@H]1O[C@@H]12.[Br-]	91.9	95.1	108	113	105	99.4	86.5	93.5	99.5	89.2	101	95.5	91.8	86.6	89.4	85	88.5	86.9	90.3	90.4	86.1	86.8	83	90.5	86.9	91	91.6	90.8	91.6	97.2	107	89	98.7
Cn1c(Nc2ccc(C(F)(F)F)cc2)nc2cc(Oc3ccnc(-c4nc(C(F)(F)F)c[nH]4)c3)ccc21	125	125	120	125	144	145	140	129	114	100	45.7	124	123	118	134	130	141	124	149	122	119	29.5	121	129	121	127	140	130	125	125	104	106	26.8
CCC1(c2ccc(N)cc2)CCC(=O)NC1=O (configuration not stated)	115	107	125	124	122	119	115	110	116	93.9	97.6	106	107	116	116	102	117	103	104	123	110	99.7	114	111	116	117	118	104	107	123	102	111	111
CCc1c(C(=O)C(N)=O)c2c(OCC(=O)O)cccc2n1Cc1ccccc1	113	105	94.9	103	122	103	107	100	89.4	90.8	96.5	92	105	91.1	103	104	93.1	89.2	103	98.2	100	92.3	95.3	103	105	101	105	86.9	103	96.6	96.3	91.6	92
OC[C@H](Cc1ccccc1)Nc1nc(Oc2ccc3c(c2)CCC3)nc2c1ncn2Cc1ccc(-c2ccccc2)cc1	95.3	100	83.5	123	86.9	98.5	108	88.6	99.5	87.2	96.7	79.7	83.2	84.8	96.4	102	89.7	90.3	92.2	98.8	90.5	90.2	90.7	84	102	95.6	98.5	101	116	96.7	100	114	96.3
C[S+](=O)([O-])N(Cc1ccco1)CC(O)Cn1c2ccccc2c2ccccc21 (configuration not stated)	95.3	99	102	105	86.5	91.2	93.9	82.8	83.6	73.6	35.2	88.4	91.6	91.4	92.2	94.3	94	90	80.7	79.6	86.3	52.8	97.9	89.2	93.3	90.3	93.3	90.1	97.8	85.1	80.8	77.9	50.8
CC(C)(C)c1cc(C=C(C#N)C#N)cc(Br)c1O	86	114	124	112	112	122	122	113	113	103	94.9	89.9	115	116	126	103	106	121	132	107	109	100	84.5	101	105	103	105	108	125	115	116	116	103
CCOC(=O)N1CCN(/[N+]([O-])=N/Oc2ccc([N+](=O)[O-])cc2[N+](=O)[O-])CC1	85.1	102	102	106	117	101	109	110	97.1	98.5	50.8	80	100	89.3	94.7	89.2	92.9	94.1	98.5	102	87	38.5	82.1	87.5	80.1	86.8	99.7	96.6	86.7	89.5	89.2	89.6	41.9
